Assay results taken from US20260034200A1, “TOLEROGENIC PEPTIDES” (University of Birmingham, priority 2022, published 2026).

Key:
[1] = system: MHC class II molecules on fixed or non-fixed HLA-DR4 transgenic mouse splenocytes (hybridoma SC3 readout); assay: Fixed APC T-cell hybridoma screen; type: cell-based; settings: co-culture with formaldehyde fixed and non-fixed HLA-DR4 splenocytes, 48 h
Experimental: Splenocytes from HLA-DR4 transgenic mice were formaldehyde fixed by the following protocol performed at room temperature; 5 min incubation with 0.5% w/v formaldehyde in PBS at 1×10^6 cells/mL quenched by addition of an equal volume of 0.4 M glycine in PBS solution for a further 5 min, before three washes with cold PBS. T-cell hybridoma screens were set up using 1×10^5 hybridomas and either 2×10^5 formaldehyde fixed APCs or 2×10^5 non-fixed APCs for 48 h co-culture with stimulant or control and responses measured by IL-2 secretion.
The next step was to test if GAD65 P10.5.C+1.6K (P10Sol; SEQ ID NO 23) could bind to: (i) MHC class II molecules without antigen processing and, (ii) to steady-state CD11c^+ APCs. These properties are good indicators of whether a peptide can induce tolerance and be characterised as an apitope (Shepard et al., 2021). Formaldehyde fixation of splenocytes inhibits antigen processing and so to test whether GAD65 P10Sol could bind directly to cell-surface MHC class II without antigen processing, GAD65 P10-specific hybridoma SC3 was co-cultured with fixed or non-fixed splenocytes from HLA-DR4 transgenic mice. […] To test whether P10Sol could bind to steady-state CD11c^+ APCs in vivo, HLA-DR4 transgenic mice were injected with 80 μg of P10Sol or PBS, with CD11c^+ splenocytes isolated 1 h later and co-cultured with GAD65 P10 hybridomas SC3 or SC22. […]

[2] = system: PBMCs from T1D patients (CD25+ CD71+ CTVmid CD4+ T-cells); assay: FAIM assay with PBMCs from T1D patients; type: cell-based, human; settings: 34/38 T1D patients
Source text: FIG. 7. GAD65 P10Sol response rate in T1D patients. (A) T1D PBMCs were screened using the FAIM assay for responsiveness to GAD65 P10 30-mer and GAD65 P10Sol with paired ^3H-thymidine samples were acquired for each condition. A positive response for FAIM assay required a proliferating CD25^+ CD71^+ CD4 T-cell count >25 and the population SI to be ≥2× the negative control. A positive response for the ^3H-thymidine assay required raw counts >1000 and a SI of ≥3× the negative control. […] The scale for both heat maps is Log 2 (stimulation index (SI)). […] (B) Agreement analysis for the outcomes of the flow cytometric and ^3H-thymidine proliferation readouts of the FAIM assay. (C) Paired analysis of stimulation indexes from FAIM^+ and ^3H-thymidine readouts, wilcoxon matched-pairs sign rank test.
Soluble candidate peptide GAD65 P10Sol (SEQ ID NO 23) was used as a representative peptide and tested for induction of tolerance in a suitable HLA-DR transgenic mouse model (FIG. 1A). […] The FAIM assay involves a fluorescent dye-labelled CD4^+ cell enriched culture with a primary flow cytometric readout assessing CD4 T-cell fluorescent dye dilution and cell-surface activation marker expression with optional paired readouts of ^3H-thymidine incorporation and secreted cytokine measurement. […]

## DAAWGGGLLMSRKHKWKLSGVERANSVTWN [P10 30-mer]
[1]
  IL-2 response from hybridoma SC3: strong IL-2 responses
[2]
  T1D patients responding (FAIM+): 89%
